Columns and labels:
[1] = test system: newly introduced microorganisms; test: shelf life of dispersion paint after post-preservation; settings: 50 ppm 2-methyl-1,2-benzisothiazolin-3-one and 10 ppm zinc oxide added after decomposition of CMIT by cysteine
Description: The paint produced in this manner was now free of microorganisms through the use of the effective broad-spectrum biocide 5-chloro-2-methylisothiazolin-3-one, but susceptible to newly introduced microorganisms, which can infiltrate the paint during storage, due to the decomposition of the biocide by cysteine.
In order to protect the paint from such a microbial attack during storage, 50 ppm 2-methyl-1,2-benzisothiazolin-3-one and 10 ppm zinc oxide, based on the dispersion paint, were added to the dispersion paint for post-preservation.

[2] = decomposition of 2-methylisothiazolin-3-one in aqueous dispersion paint using sodium thiosulfate; assay type: physicochemical
Excerpt: However, it is disadvantageous that, according to the described method, said isothiazolinones, particularly MIT, are not quantitatively and/or irreversibly destroyed, as a result of which they are still contained in the products and reaction products and still can cause problems for people prone to allergic reactions, and/or cause contact dermatitis or aerogenic contact dermatitis in highly sensitive people.

[3] = test system: microorganisms introduced by the individual components of the paint; test: microbiological testing of dispersion paint preserved with 5-chloro-2-methylisothiazolin-3-one; assay type: cell-based; settings: 20 ppm 5-chloro-2-methylisothiazolin-3-one with <1 wt % 2-methylisothiazolin-3-one; water-based dispersion paint; growth detectable in individual components
Description: 20 ppm 5-chloro-2-methylisothiazolin-3-one, with a content of 2-methylisothiazolin-3-one of <1 wt %, was added to a preservative-free styrene acrylate dispersion. The styrene acrylate dispersion preserved in this manner was then used to produce a water-based dispersion paint. The paint produced had the following composition: • 25.7 wt % water • 0.2 wt % acrylate-based wetting and dispersion agents • 0.2 wt % mineral oil-based defoamer • 2.0 wt % water softener (sodium polyphosphate) • 0.2 wt % ammonia • 4.0 wt % titanium oxide (pigment) • 51.0 wt % calcium carbonate (filler) • 5.0 wt % talcum (filler) • 0.4 wt % cellulose ether • 2.0 wt % organic solvent for lowering the minimum film-forming temperature • 9.0 wt % of the styrene acrylate dispersion preserved with 20 ppm 5-chloro-2-methylisothiazolin-3-one • 20 ppm 5-chloro-2-methylisothiazolin-3-one, with a content of 2-methylisothiazolin-3-one of <1 wt %

[4] = decomposition of 5-chloro-2-methylisothiazolin-3-one in dispersion paint by cysteine, HPLC; assay type: physicochemical; settings: 3 hours after adding 50 ppm cysteine, based on the dispersion paint
Excerpt: In order to produce a paint, which is harmless for allergy suffers with respect to the 5-chloro-2-methylisothiazolin-3-one and 2-methylisothiazolin-3-one, from the dispersion paint, which contained significant quantities of 5-chloro-2-methylisothiazolin-3-one, these isothiazolin-3-ones were decomposed by adding 50 ppm cysteine, based on the dispersion paint.

SMILES: Cn1sc2ccccc2c1=O [2-methyl-1,2-benzisothiazolin-3-one]
- shelf life of the paint [1]: at least 6 months

SMILES: Cn1sccc1=O [2-methylisothiazolin-3-one]
- destruction of 2-methylisothiazolin-3-one using sodium thiosulfate [2]: could not be quantitatively or irreversibly destroyed

SMILES: Cn1sc(Cl)cc1=O [5-chloro-2-methylisothiazolin-3-one]
- microbial growth in the dispersion paint [3]: no microbial growth was found
- 5-chloro-2-methylisothiazolin-3-one detectable in the dispersion paint by HPLC [4]: no more 5-chloro-2-methylisothiazolin-3-one was detectable

— patent publication US10633547B2, “Method for reducing microbial attack of industrial products” (Thor GmbH, priority 2016, dated 2020)
